Laboratory results: patent publication US4117148A, “2,9-Dioxatricyclo [4,3,1,0,3,7] decane derivatives, processes for their preparation and pharmaceutical compositions thereof” (Kali-Chemie Pharma GmbH., priority 1977, dated 1978)
Read-outs that look alike come from different tables or passages of the source.

Key:
[1] = tested on: phenyl benzoquinone syndrome in mice; assay: Phenyl benzoquinone syndrome (writhing test), analgesic activity; format: in vivo, mouse; details: for ED50: Mus musculus, po, read-out: Analgesic activity, inhibition of PBC-syndrome, ED50
[2] = tested on: rat's paw; assay: Randall-Selitto-Test, pressure pain threshold in the rat's paw (antiphlogistic/analgesic); format: in vivo; details: for ED50: Rattus norvegicus, sc
[3] = Acute toxicity, LD50 after i.p. administration; format: in vivo; details: mouse, in vivo, ip, mice
Method: (§1) The toxicity of the 3-azidomethyl-2,9-dioxatricyclo[4,3,1,0^3,7 ] decanes of the formula (I) is extremely low. The LD50 in mice is in the range of between about 500 and about 700 mg/kg, when determined after i.p. administration of the compounds.

[4] = tested on: mice; assay: Acute toxicity, LD50 after i.p. administration; format: in vivo
Method: as §1

[5] = normal paw, read-out: Randall Selitto-test ED50, normal paw
[6] = oedema bearing paw, read-out: Randall Selitto-test ED50, oedema bearing paw

CC(=O)Oc1ccccc1C(=O)O [Apsirin, reference compound]
ED50 [1]: 240 mg/kg
ED50 [2, 5]: > 700 mg/kg
ED50 [2, 6]: 440 mg/kg

COc1ccc2c(c1)c(CC(=O)O)c(C)n2C(=O)c1ccc(Cl)cc1 [Indomethazine, reference compound]
ED50 [2, 5]: 250 mg/kg
ED50 [2, 6]: 64 mg/kg

COc1ccc2cc([C@H](C)C(=O)O)ccc2c1 [Naproxene, reference compound]
ED50 ([1]; mouse, p.o.): 30 mg/kg
ED50 [2, 5]: 250 mg/kg
ED50 [2, 6]: 147 mg/kg

CCCCC1C(=O)N(c2ccccc2)N(c2ccccc2)C1=O [Phenylbutazone, reference compound]
ED50 ([1]; mouse, p.o.): > 30 mg/kg
ED50 [2, 5]: > 100 mg/kg
ED50 [2, 6]: 58 mg/kg

COC1OC2OC3(CN=[N+]=[N-])C(OC(C)=O)CC(C2C)C13 (stereo not drawn) [X, 3-azidomethyl-4β-acetoxy-8-methoxy-10β-methyl-2,9-DTD]
LD50 [3]: 739 mg/kg
Analgesic activity, inhibition of PBC-syndrome, ED50 ([1]; mouse, p.o.): ~ 10 mg/kg
ED50 [2, 5]: > 32 mg/kg
Randall Selitto-test ED50, oedema bearing paw ([2]; s.c., oedema bearing paw): > 32 mg/kg

COC1OC2OC3(CN=[N+]=[N-])C(=O)CC(C2C)C13 (stereo not drawn) [XVIII, 3-azidomethyl-8-methoxy-10β-methyl-2,9-DTD-4-one]
LD50 [3]: 632 mg/kg
ED50 ([1]; mouse, p.o.): < 56 mg/kg
ED50 [2, 5]: > 100 mg/kg
ED50 [2, 6]: > 100 mg/kg

COC1OC2OC3(CN=[N+]=[N-])C(O)CC(C2C)C13 (stereo not drawn) [XXII, 3-azidomethyl-4α-hydroxy-8-methoxy-10β-methyl-2,9-DTD]
LD50 [3]: 571 mg/kg
ED50 ([1]; mouse, p.o.): 18.5 mg/kg
ED50 [2, 5]: > 32 mg/kg
ED50 [2, 6]: > 32 mg/kg

C=C1C2OC(OC)C3C1CC(OC(C)=O)C3(CN=[N+]=[N-])O2 (stereo not drawn) [XXV, 3-azidomethyl-4α-acetoxy-8-methoxy-10-methylene-2,9-DTD]
ED50 ([1]; mouse, p.o.): ~56 mg/kg
ED50 [2, 5]: 100 mg/kg
ED50 [2, 6]: 100 mg/kg

COC1OC2OC3(CN=[N+]=[N-])C(OC(C)=O)CC(C2C)C13 (stereo not drawn) [XXVI, 3-azidomethyl-4α-acetoxy-8-methoxy-10β-methyl-2,9-DTD]
LD50 [4]: 574 mg/kg
Analgesic activity, inhibition of PBC-syndrome, ED50 ([1]; mouse, p.o.): < 3.2 mg/kg
Randall Selitto-test ED50, normal paw ([2]; s.c., normal paw): ~ 32 mg/kg
Randall Selitto-test ED50, oedema bearing paw ([2]; s.c., oedema bearing paw): 15 mg/kg
